Experiments:
Test in all cases: biochemical
[1] = target: T1, hFAP (M39-A757) (Homo sapiens, UniProt Q12884);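 further: surface plasmon resonance direct binding to hFAP amine-coupled on a sensor chip, rising compound concentrations by single cycle kinetics, Kd from global fit of interaction models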
T1 sequence (Q12884 39-757): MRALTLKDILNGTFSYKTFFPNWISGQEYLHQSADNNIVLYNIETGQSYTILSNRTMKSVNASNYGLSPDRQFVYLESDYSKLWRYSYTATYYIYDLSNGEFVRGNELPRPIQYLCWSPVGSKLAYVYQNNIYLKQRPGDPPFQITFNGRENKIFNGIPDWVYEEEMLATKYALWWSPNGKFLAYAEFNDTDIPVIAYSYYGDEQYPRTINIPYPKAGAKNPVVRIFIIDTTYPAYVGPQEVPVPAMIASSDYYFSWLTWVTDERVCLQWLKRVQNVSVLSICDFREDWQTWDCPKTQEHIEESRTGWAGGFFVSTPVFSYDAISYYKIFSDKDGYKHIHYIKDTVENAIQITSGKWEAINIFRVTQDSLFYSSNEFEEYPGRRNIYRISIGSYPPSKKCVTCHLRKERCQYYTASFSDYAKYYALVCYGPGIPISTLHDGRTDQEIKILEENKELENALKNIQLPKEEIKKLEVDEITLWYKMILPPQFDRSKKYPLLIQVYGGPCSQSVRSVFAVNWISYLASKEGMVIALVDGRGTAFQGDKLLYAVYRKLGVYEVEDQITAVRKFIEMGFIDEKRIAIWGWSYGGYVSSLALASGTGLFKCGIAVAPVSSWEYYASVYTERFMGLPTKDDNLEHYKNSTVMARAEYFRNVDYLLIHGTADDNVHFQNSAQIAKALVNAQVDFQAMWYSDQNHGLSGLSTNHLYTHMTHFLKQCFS

[2] = target: T2, Prolyl endopeptidase, Prolyl Oligopeptidase (hPREP) (Homo sapiens, UniProt P48147)
T2 sequence (P48147 1-710): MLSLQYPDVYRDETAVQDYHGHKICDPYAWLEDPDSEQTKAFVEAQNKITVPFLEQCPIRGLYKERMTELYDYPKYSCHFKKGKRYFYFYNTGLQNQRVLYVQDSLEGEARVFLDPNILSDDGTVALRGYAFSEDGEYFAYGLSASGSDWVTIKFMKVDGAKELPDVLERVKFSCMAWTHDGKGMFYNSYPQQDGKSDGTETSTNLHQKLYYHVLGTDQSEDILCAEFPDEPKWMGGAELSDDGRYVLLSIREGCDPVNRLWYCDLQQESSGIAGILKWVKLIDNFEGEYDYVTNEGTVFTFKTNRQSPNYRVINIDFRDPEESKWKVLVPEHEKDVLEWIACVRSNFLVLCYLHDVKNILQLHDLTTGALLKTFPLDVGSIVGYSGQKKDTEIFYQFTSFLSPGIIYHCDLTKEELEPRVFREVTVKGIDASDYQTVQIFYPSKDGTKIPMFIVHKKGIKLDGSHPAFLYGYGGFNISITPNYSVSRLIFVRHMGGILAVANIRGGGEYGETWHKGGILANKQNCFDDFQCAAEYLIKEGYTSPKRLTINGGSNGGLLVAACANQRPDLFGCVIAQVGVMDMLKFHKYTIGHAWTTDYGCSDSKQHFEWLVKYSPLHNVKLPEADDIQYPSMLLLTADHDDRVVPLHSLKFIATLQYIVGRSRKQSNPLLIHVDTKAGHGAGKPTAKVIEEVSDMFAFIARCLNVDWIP
Description: Compounds were tested in a biochemical inhibition assay using Prolyl endopeptidase, Prolyl Oligopeptidase (hPREP) enzyme at 0.6 nM FAC (R&D Systems, 4308-SE) and the substrate Z-Gly-Pro-amino-methylcoumarin (Bachem, I-1145) at 50 μM FAC. 384 Low volume black plates (Greiner #784076) were used. […] Plates were incubated for 15 min at rt in dark. 4 μL, 100 μM substrate solution (25 mM Tris HCl, 250 mM NaCl, 0.01% Triton X-100, 5 mM Glutathione, pH 7.5) was added to each well. Plates were centrifuged at 1000 rpm and incubated for 20 min at rt in dark. The plates were read on a PHERAstar® reader with excitation 340 nm and emission 460 nm. Data were analyzed in Genedata Screener®. IC50 values were determined by plotting % inhibition versus log compound concentration and using a one site dose response model.

[3] = target: T3, hFAP (Homo sapiens, UniProt Q12884);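 further: substrate fluorescence read at room temperature in darkness, IC50 obtained by one-site dose-response fitting of percent inhibition against log concentration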
T3 sequence (Q12884 38-760): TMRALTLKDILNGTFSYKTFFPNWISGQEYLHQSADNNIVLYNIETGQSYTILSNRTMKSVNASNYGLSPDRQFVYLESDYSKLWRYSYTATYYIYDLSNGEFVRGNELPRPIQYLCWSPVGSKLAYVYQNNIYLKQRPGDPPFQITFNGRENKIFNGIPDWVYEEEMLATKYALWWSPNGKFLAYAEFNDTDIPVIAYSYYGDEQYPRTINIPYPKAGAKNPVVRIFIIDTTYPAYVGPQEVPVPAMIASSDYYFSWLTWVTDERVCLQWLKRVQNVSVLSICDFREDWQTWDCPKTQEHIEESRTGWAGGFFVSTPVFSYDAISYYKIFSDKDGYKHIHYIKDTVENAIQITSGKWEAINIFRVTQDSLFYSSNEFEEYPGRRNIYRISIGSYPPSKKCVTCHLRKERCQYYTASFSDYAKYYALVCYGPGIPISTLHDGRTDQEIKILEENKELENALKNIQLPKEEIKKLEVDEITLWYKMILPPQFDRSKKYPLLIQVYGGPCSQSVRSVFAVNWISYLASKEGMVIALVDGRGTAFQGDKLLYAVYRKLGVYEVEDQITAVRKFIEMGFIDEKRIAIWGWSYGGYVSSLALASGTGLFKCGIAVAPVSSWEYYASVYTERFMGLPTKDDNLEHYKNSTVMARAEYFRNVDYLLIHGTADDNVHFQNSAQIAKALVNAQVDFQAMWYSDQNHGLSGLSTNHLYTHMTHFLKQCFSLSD

| Kd [1] [nM] | IC50 [2] [nM] | IC50 [3] [nM] | Structure (SMILES) |
| --- | --- | --- | --- |
| 0.35 | 910 | 0.63 | N#C[C@@H]1CSCN1C(=O)CNC(=O)c1ccnc2ccc(C3CCCCO3)cc12 (mixture of isomers) [Example 32, N-(2-((R)-4-Cyanothiazolidin-3-yl)-2-oxoethyl)-6-((RS)-tetrahydro-2H-pyran-2-yl)quinoline-4-carboxamide] |
| 0.022 | 1000 |  | CO[C@H]1CC[C@H](c2ccc3nccc(C(=O)NCC(=O)N4CSC[C@H]4C#N)c3c2)CC1 (single isomer, unassigned) [Example 78, N-(2-((R)-4-Cyanothiazolidin-3-yl)-2-oxoethyl)-6-((1r,4R*)-4-methoxycyclohexyl)quinoline-4-carboxamide] |
| 0.062 | 950 |  | CC(C)(F)COc1ccc2nccc(C(=O)NCC(=O)N3CSC[C@H]3C#N)c2c1 [Example 3, (R)—N-(2-(4-Cyanothiazolidin-3-yl)-2-oxoethyl)-6-(2-fluoro-2-methylpropoxy)quinoline-4-carboxamide] |
| 0.068 | 1100 | 0.45 | N#C[C@@H]1CSCN1C(=O)CNC(=O)c1ccnc2ccc(C3(O)CCOCC3)cc12 [Example 15, (R)—N-(2-(4-Cyanothiazolidin-3-yl)-2-oxoethyl)-6-(4-hydroxy-tetrahydro-2H-pyran-4-yl)quinoline-4-carboxamide] |
| 0.23 | 640 | 0.6 | CC(C)(O)c1ccc2nccc(C(=O)NCC(=O)N3CSC[C@H]3C#N)c2c1 [Example 16, (R)—N-(2-(4-Cyanothiazolidin-3-yl)-2-oxoethyl)-6-(2-hydroxypropan-2-yl)quinoline-4-carboxamide] |
| 0.43 | 860 | 0.81 | COC(C)(C)c1ccc2nccc(C(=O)NCC(=O)N3CSC[C@H]3C#N)c2c1 [Example 18, (R)—N-(2-(4-Cyanothiazolidin-3-yl)-2-oxoethyl)-6-(2-methoxypropan-2-yl)quinoline-4-carboxamide] |
| 0.056 | 1000 | 0.23 | N#C[C@@H]1CSCN1C(=O)CNC(=O)c1ccnc2ccc(C3CCOCC3)cc12 [Example 20, (R)—N-(2-(4-Cyanothiazolidin-3-yl)-2-oxoethyl)-6-(tetrahydro-2H-pyran-4-yl)quinoline-4-carboxamide] |
| 0.059 | 1100 | 0.71 | CCOC1(c2ccc3nccc(C(=O)NCC(=O)N4CSC[C@H]4C#N)c3c2)CCOCC1 [Example 23, (R)—N-(2-(4-Cyanothiazolidin-3-yl)-2-oxoethyl)-6-(4-ethoxytetrahydro-2H-pyran-4-yl)quinoline-4-carboxamide] |
| 0.62 | 120 | 0.43 | N#C[C@@H]1CSCN1C(=O)CNC(=O)c1ccnc2ccc(C3(C#N)CC3)cc12 [Example 70, (R)-6-(1-Cyanocyclopropyl)-N-(2-(4-cyanothiazolidin-3-yl)-2-oxoethyl)quinoline-4-carboxamide] |
